We go through 21 compounds from patent publication US7745619B2, “Vinca derivatives” (priority 2003, dated 2010).

Each structure is given as a SMILES string. Where two headings read alike, the source gives them in different places.

Assay [1] concerns MCF-7 cells. Nature of the assay: MCF-7 GI50 determination (crystal violet growth inhibition). It counts as cell-based, human. Particulars: Homo sapiens, MCF7, 96 h. How it is done:
Growth inhibition (GI50) values were measured on the human breast carcinoma line, MCF-7. MCF-7 cells were plated at 2×10^4 cells/well in 96 well plates and grown for 24 hours in drug free media. On day 2, test compounds were added to the plates at 10-fold dilutions. Four days later, cells were fixed by the addition of glutaraldehyde to 0.75%. After 30 min, the fixed cells were extensively rinsed with distilled water and dried at room temperature for one hour. The cells were then stained with a 0.2% crystal violet solution for one hour at room temperature. Unbound stain was removed by ten rinses with tap water and plates were allowed to air dry for 30 min. The crystal violet was then solubilized by the addition of 10% acetic acid for 15 min and quantified by measuring absorbance at 570 nm on a Molecular Devices microplate reader. Growth inhibition was calculated according to the following equation: GI=[…], where the optical density (OD) of the test well after 4 days of treatment was T, the OD of the wells in the control plate on day 0 was T0. Plots of percent growth inhibition versus inhibitor concentration were used to determine the GI50.

Assay [2] concerns HeLa S-3 cells. Nature of the assay: HeLa GI50 determination (SRB growth inhibition). It counts as cell-based, human. The note with it: Homo sapiens, HeLa S3, 48 h. The method, then: Growth inhibition (GI50) values were measured on the human cervical carcinoma cell line, HeLa S-3, which were selected for growth on plastic. The HeLa cell assay was based on the description of Skehan et al., J. Natl. Cancer Inst., 82:1107-12 (1990), which is hereby incorporated by reference in its entirety. HeLa cells were plated at 2×10^4 cells/well in 96 well plates. One day later, a control plate was fixed by the addition of TCA to 5%. After five rinses with tap water, the plate was air-dried and stored at 4° C. Test compounds were added to the remaining plates at 10-fold dilutions. Two days later, all plates were fixed as described above. Cells were then stained by the addition of 100 μL per well of 0.4% sulforhodamine B (SRB) in 1% acetic acid for 30 min at 4° C. Wells were then quickly rinsed 5× with 1% acetic acid and allowed to air dry. The SRB was then solubilized by the addition of 100 μL per well of unbuffered 10 mM Tris base. Dye was quantified by measuring absorbance at 490 nm on a Molecular Devices microplate reader. Growth inhibition was calculated according to the following equation: GI=100×(T−T0)/(C−T0), where the optical density (OD) of the test well after 2 days of treatment was T, the OD of the wells in the control plate on day 0 was T0 and C was the OD of untreated wells. Plots of percent growth inhibition versus inhibitor concentration were used to determine the GI50.

Setting [3] is: read-out: MCF-7 Cells GI50 (nM).
Where [4] appears, read: MCF-7 cells, 4 days of treatment, crystal violet, read-out: MCF-7 Cells GI50.
The mark [5] stands for this setting: HeLa S-3 cells, 2 days of treatment, sulforhodamine B, read-out: HeLa Cells GI50.

For the compound `CC[C@]1(O)C[C@H]2CN(CCc3c([nH]c4ccc(-c5ccccc5)cc34)[C@@](C(=O)OC)(c3cc4c(cc3OC)N(C=O)[C@H]3[C@@](O)(C(=O)OC)[C@H](OC(C)=O)[C@]5(CC)C=CCN6CC[C@]43[C@@H]65)C2)C1` [Example 5, 12′-phenylvincristine], the values for the GI50 in assay [1] (setting [3]) and in assay [2] (read-out: HeLa Cells GI50 (nM)) were 30 nM and 50 nM, respectively.
As for `CC[C@]1(O)C[C@H]2CN(CCc3c([nH]c4ccc(-c5ccccc5)cc34)[C@@](C(=O)OC)(c3cc4c(cc3OC)N(C)[C@H]3[C@@](O)(C(=O)OC)[C@H](OC(C)=O)[C@]5(CC)C=CCN6CC[C@]43[C@@H]65)C2)C1` [Example 6, 12′-phenylvinblastine], the 50% growth inhibitory concentration (GI50) (commonly the concentration giving 50% growth inhibition) in assay [1] (setting [3]) came to 300 nM; in assay [2] (read-out: HeLa Cells GI50 (nM)) it was 400 nM.
The matching figures for `CC[C@]1(O)C[C@H]2CN(CCc3c([nH]c4ccc(-c5ccc(OC)cc5)cc34)[C@@](C(=O)OC)(c3cc4c(cc3OC)N(C=O)[C@H]3[C@@](O)(C(=O)OC)[C@H](OC(C)=O)[C@]5(CC)C=CCN6CC[C@]43[C@@H]65)C2)C1` [Example 7, 12′-(4-methoxyphenyl) vincristine]: 100 nM and 400 nM.
For `CC[C@]1(O)C[C@H]2CN(CCc3c([nH]c4ccc(-c5cccc(OC)c5)cc34)[C@@](C(=O)OC)(c3cc4c(cc3OC)N(C)[C@H]3[C@@](O)(C(=O)OC)[C@H](OC(C)=O)[C@]5(CC)C=CCN6CC[C@]43[C@@H]65)C2)C1` [Example 9, 12′-(3-methoxyphenyl) vinblastine], in that order: 500 nM and 300 nM.
Take `CC[C@]1(O)C[C@H]2CN(CCc3c([nH]c4ccc(-c5ccc(F)cc5)cc34)[C@@](C(=O)OC)(c3cc4c(cc3OC)N(C)[C@H]3[C@@](O)(C(=O)OC)[C@H](OC(C)=O)[C@]5(CC)C=CCN6CC[C@]43[C@@H]65)C2)C1` [Example 10, 12′-(4-fluorophenyl) vinblastine]: the figures for the concentration for 50% growth inhibition (GI50) in assay [1] (setting [3]) and in assay [2] (read-out: HeLa Cells GI50 (nM)) were 95 nM and 250 nM, respectively.
For `CC[C@]1(O)C[C@H]2CN(CCc3c([nH]c4ccc(-c5cccc(F)c5)cc34)[C@@](C(=O)OC)(c3cc4c(cc3OC)N(C)[C@H]3[C@@](O)(C(=O)OC)[C@H](OC(C)=O)[C@]5(CC)C=CCN6CC[C@]43[C@@H]65)C2)C1` [Example 11, 12′-(3-fluorophenyl) vinblastine], in that order: 300 nM and 300 nM.
The matching figures for `CC[C@]1(O)C[C@H]2CN(CCc3c([nH]c4ccc(-c5cccc(O)c5)cc34)[C@@](C(=O)OC)(c3cc4c(cc3OC)N(C)[C@H]3[C@@](O)(C(=O)OC)[C@H](OC(C)=O)[C@]5(CC)C=CCN6CC[C@]43[C@@H]65)C2)C1` [Example 12, 12′-(3-hydroxyphenyl) vinblastine]: 300 nM and 200 nM.
The matching figures for `CC[C@]1(O)C[C@H]2CN(CCc3c([nH]c4ccc(-c5cccnc5)cc34)[C@@](C(=O)OC)(c3cc4c(cc3OC)N(C)[C@H]3[C@@](O)(C(=O)OC)[C@H](OC(C)=O)[C@]5(CC)C=CCN6CC[C@]43[C@@H]65)C2)C1` [Example 13, 12′-(3-pyridyl) vinblastine]: 600 nM and more than 1000 nM.
On to `CC[C@]1(O)C[C@H]2CN(CCc3c([nH]c4ccc(-c5ccsc5)cc34)[C@@](C(=O)OC)(c3cc4c(cc3OC)N(C)[C@H]3[C@@](O)(C(=O)OC)[C@H](OC(C)=O)[C@]5(CC)C=CCN6CC[C@]43[C@@H]65)C2)C1` [Example 14, 12′-(3-thienyl) vinblastine], for which the 50% growth inhibitory concentration (GI50) in assay [1] (setting [3]) and in assay [2] (read-out: HeLa Cells GI50 (nM)) was 300 nM in each case.
For the compound `CC[C@]1(O)C[C@H]2CN(CCc3c([nH]c4ccc(-c5nccs5)cc34)[C@@](C(=O)OC)(c3cc4c(cc3OC)N(C)[C@H]3[C@@](O)(C(=O)OC)[C@H](OC(C)=O)[C@]5(CC)C=CCN6CC[C@]43[C@@H]65)C2)C1` [Example 15, 12′-(2-thiazolyl) vinblastine], the concentration for 50% growth inhibition (GI50) in assay [1] (setting [3]) worked out at 100 nM; in assay [2] (read-out: HeLa Cells GI50 (nM)), 200 nM.
Take `CC[C@]1(O)C[C@H]2CN(CCc3c([nH]c4ccc(C#C[Si](C)(C)C)cc34)[C@@](C(=O)OC)(c3cc4c(cc3OC)N(C)[C@H]3[C@@](O)(C(=O)OC)[C@H](OC(C)=O)[C@]5(CC)C=CCN6CC[C@]43[C@@H]65)C2)C1` [Example 16, 12′-(trimethylsilylethynyl)vinblastine]: the concentration for 50% growth inhibition (GI50) was found to be 40 nM in assay [1] (setting [4]) and 300 nM in assay [2] (setting [5]).
For `CC#Cc1ccc2[nH]c3c(c2c1)CCN1C[C@H](C[C@@](O)(CC)C1)C[C@]3(C(=O)OC)c1cc2c(cc1OC)N(C)[C@H]1[C@@](O)(C(=O)OC)[C@H](OC(C)=O)[C@]3(CC)C=CCN4CC[C@]21[C@@H]43` [Example 18, 12′-propynylvinblastine], in that order: 300 nM and 300 nM.
Turning to `CC[C@]1(O)C[C@H]2CN(CCc3c([nH]c4ccc(C#CC(C)C)cc34)[C@@](C(=O)OC)(c3cc4c(cc3OC)N(C)[C@H]3[C@@](O)(C(=O)OC)[C@H](OC(C)=O)[C@]5(CC)C=CCN6CC[C@]43[C@@H]65)C2)C1` [Example 20, 12′-(3-methylbutynyl) vinblastine], the GI50 in assay [1] (setting [3]) was more than 1000 nM; in assay [2] (read-out: HeLa Cells GI50 (nM)) it was 500 nM.
The matching figures for `CC[C@]1(O)C[C@H]2CN(CCc3c([nH]c4ccc(C#CC(C)C)cc34)[C@@](C(=O)OC)(c3cc4c(cc3OC)N(C=O)[C@H]3[C@@](O)(C(=O)OC)[C@H](OC(C)=O)[C@]5(CC)C=CCN6CC[C@]43[C@@H]65)C2)C1` [Example 21, 12′-(3-methylbutynyl) vincristine]: 300 nM and 300 nM.
With `CCCCC#Cc1ccc2[nH]c3c(c2c1)CCN1C[C@H](C[C@@](O)(CC)C1)C[C@]3(C(=O)OC)c1cc2c(cc1OC)N(C=O)[C@H]1[C@@](O)(C(=O)OC)[C@H](OC(C)=O)[C@]3(CC)C=CCN4CC[C@]21[C@@H]43` [Example 22, 12′-hexynylvincristine], the 50% growth inhibitory concentration (GI50) in assay [1] (setting [3]) and in assay [2] (read-out: HeLa Cells GI50 (nM)) was 300 nM throughout.
In the case of `CCCCC#Cc1ccc2[nH]c3c(c2c1)CCN1C[C@H](C[C@@](O)(CC)C1)C[C@]3(C(=O)OC)c1cc2c(cc1OC)N(C)[C@H]1[C@@](O)(C(=O)OC)[C@H](OC(C)=O)[C@]3(CC)C=CCN4CC[C@]21[C@@H]43` [Example 23, 12′-hexynylvinblastine], the concentration for 50% growth inhibition (GI50) in assay [1] (setting [4]) was determined as 50 nM; in assay [2] (setting [5]), 40 nM.
Take `CC[C@]1(O)C[C@H]2CN(CCc3c([nH]c4ccc(C#CCN(C)C)cc34)[C@@](C(=O)OC)(c3cc4c(cc3OC)N(C)[C@H]3[C@@](O)(C(=O)OC)[C@H](OC(C)=O)[C@]5(CC)C=CCN6CC[C@]43[C@@H]65)C2)C1` [Example 24, 12′-(N,N-dimethylaminopropynyl)vinblastine]: the 50% growth inhibitory concentration (GI50) in assay [1] (setting [3]) was 400 nM; in assay [2] (read-out: HeLa Cells GI50 (nM)) it was 300 nM.
Consider `C=Cc1ccc2[nH]c3c(c2c1)CCN1C[C@H](C[C@@](O)(CC)C1)C[C@]3(C(=O)OC)c1cc2c(cc1OC)N(C)[C@H]1[C@@](O)(C(=O)OC)[C@H](OC(C)=O)[C@]3(CC)C=CCN4CC[C@]21[C@@H]43` [Example 25, 12′-vinylvinblastine], for which the GI50 in assay [1] (setting [4]) is 9 nM; in assay [2] (setting [5]) it was 3 nM.
For `CCOC(=O)/C=C/c1ccc2[nH]c3c(c2c1)CCN1C[C@H](C[C@@](O)(CC)C1)C[C@]3(C(=O)OC)c1cc2c(cc1OC)N(C)[C@H]1[C@@](O)(C(=O)OC)[C@H](OC(C)=O)[C@]3(CC)C=CCN4CC[C@]21[C@@H]43` [Example 26, 12′-(2-ethoxycarbonylvinyl)vinblastine], the GI50 was 70 nM in assay [1] (setting [3]) and 165 nM in assay [2] (read-out: HeLa Cells GI50 (nM)).
For `CC[C@]1(O)C[C@H]2CN(CCc3c([nH]c4ccc(/C=C/C(=O)OC(C)(C)C)cc34)[C@@](C(=O)OC)(c3cc4c(cc3OC)N(C)[C@H]3[C@@](O)(C(=O)OC)[C@H](OC(C)=O)[C@]5(CC)C=CCN6CC[C@]43[C@@H]65)C2)C1` [Example 27, 12′-(2-tert-butoxycarbonylvinyl) vinblastine], in that order: 300 nM and 200 nM.
The matching figures for `CC[C@]1(O)C[C@H]2CN(CCc3c([nH]c4ccc(/C=C/C(=O)O)cc34)[C@@](C(=O)OC)(c3cc4c(cc3OC)N(C)[C@H]3[C@@](O)(C(=O)OC)[C@H](OC(C)=O)[C@]5(CC)C=CCN6CC[C@]43[C@@H]65)C2)C1` [Example 28, 12′-(2-carboxylvinyl) vinblastine]: 300 nM and 100 nM.
